What was measured:
[1] = target: T1, LD from human heart (Homo sapiens, UniProt P07195); assay: Inhibition of LD activity in human heart extract by high pyruvate, without preincubation (present method); type: biochemical
T1 construct: Human tissue extracts were prepared by sonic disruption; from tissue; host or cells: human heart, crude extract (sonicated, supernatant of centrifugation)
Protocol: (§1) Preparation of tissue. Human tissue extracts were prepared by sonic disruption (at 4° l C. for 1 min.) of 1 g (wet weight) of tissue in 9 ml of potassium phosphate buffer (0.1 mol/liter, pH 7.0). The homogenates were centrifuged at 4° C. at 5×10^4 g for 10 min.; and the superiors were promptly examined for LD activity and stored at -80° C.
(§2) Assay for total LD activity. The measurements were at 340 nm and 25° C. in a Model 240 (Gilford Instrument, Oberlin, Ohio 44074) digital kinetic spectrophotometer when manual determinations were needed to supply data for calibration curves with purified enzymes or with tissue extracts, and for serum assays in the preliminary stages of developing the method. Sera were assayed at 25° C. in a centrifugal analyzer (GEMSAEC; Electronucleonics, Inc., Fairfield, N.J. 07006) after the optimum conditions were known to be suitable for manual determinations. For automated determinations 500 ul of pyruvate reaction mixture and 50 ul of serum (an 11-fold dilution of the serum) were required. Conditions for measuring total LD activity were: 0.34 mmol of pyruvate and 0.13 mmcl of NADH per liter of the phosphate buffer. The molar absorptivity 6.22×10^3 liter mol^-1 cm^-1 for NADH was used in calculating enzyme activity in IUB units.
(§3) Kinetic determination of isoenzymes. LD's are inhibited by their substrate, the H-type LD being inhibited by pyruvate to a greater extent than the M-type LD. This inhibition, related to the formation of an abortive ternary complex, was the basis of the method that has been used to distinguish the heart enzyme from the muscle enzyme after preincubation. […]

[2] = target: T2, LD from human liver (Homo sapiens, UniProt P00338); assay: Inhibition of LD activity in human liver extract by high pyruvate, without preincubation (present method); type: biochemical
T2 construct: Human tissue extracts were prepared by sonic disruption; from tissue; host or cells: human liver, crude extract (sonicated, supernatant of centrifugation)
Protocol: as §1, §2, §3

[3] = target: chicken heart LD (Gallus gallus, UniProt P00337); assay: Inhibition of chicken heart LD by pyruvate; type: biochemical; conditions: 3.4 mmol/liter pyruvate
Protocol: as §2
(§4) Assay conditions. Studies of the pH dependence of the inhibition of chicken heart LD at an initial substrate concentration of 3.4 mmol/liter pyruvate (control rate, 0.1 absorbance unit change per minute at 0.34 mmol/liter pyruvate) indicated the pH for maximum inhibition of LD activity to be pH 7, although pH 6.5 was also suitable for the inhibition. […]

[4] = tested on: rabbit muscle LD; assay: Activity/inhibition of crystalline rabbit muscle LD at high pyruvate; type: biochemical
Protocol: as §2, §4

[5] = tested on: LD from human kidney; assay: Inhibition of human kidney LD, present method; type: biochemical; conditions: mean ± 2 SD, at least seven sources
Protocol: as §1, §2
(§5) Kinetic determination of isoenzymes. […]

[6] = tested on: LD from human brain; assay: Inhibition of human brain LD, present method; type: biochemical; conditions: mean ± 2 SD, at least seven sources
Protocol: as §1, §2, §5

[7] = tested on: LD from human spleen; assay: Inhibition of human spleen LD, present method; type: biochemical; conditions: mean ± 2 SD, at least seven sources
Protocol: as §1, §2, §5

[8] = tested on: LD from human muscle; assay: Inhibition of human muscle LD, present method; type: biochemical; conditions: mean ± 2 SD, at least seven sources
Protocol: as §1, §2, §5

[9] = tested on: H-type LD; assay: Kinetic determination of isoenzymes: inhibition of human H-type LD without preincubation; type: biochemical; conditions: 5 mmol pyruvate and 0.13 mmol NADH per liter, phosphate buffer pH 7.0
Protocol: (§6) Kinetic determination of isoenzymes. LD's are inhibited by their substrate, the H-type LD being inhibited by pyruvate to a greater extent than the M-type LD. This inhibition, related to the formation of an abortive ternary complex, was the basis of the method that has been used to distinguish the heart enzyme from the muscle enzyme after preincubation.
(§7) Conditions for inhibiting the human LD activity without any preincubation were: 5 mmol of pyruvate and 0.13 mmol of NADH per liter of 100 l mmol/liter potassium phosphate buffer, pH 7.0.

[10] = tested on: M-type LD; assay: Kinetic determination of isoenzymes: inhibition of human M-type LD without preincubation; type: biochemical; conditions: 5 mmol pyruvate and 0.13 mmol NADH per liter, phosphate buffer pH 7.0
Protocol: as §6, §7

[11] = target: T1, LD from human heart; conditions: previously reported, mean ± 2 SD; cited from earlier work
[12] = target: T2, LD from human liver; conditions: previously reported, mean ± 2 SD; cited from earlier work
[13] = tested on: LD from human kidney; conditions: previously reported, mean ± 2 SD; cited from earlier work
[14] = tested on: LD from human brain; conditions: previously reported, mean ± 2 SD; cited from earlier work
[15] = tested on: LD from human spleen; conditions: previously reported, mean ± 2 SD; cited from earlier work
[16] = tested on: LD from human muscle; conditions: previously reported, mean ± 2 SD; cited from earlier work
[17] = present method, mean ± 2 SD, at least seven sources

T1 sequence (P07195 2-334): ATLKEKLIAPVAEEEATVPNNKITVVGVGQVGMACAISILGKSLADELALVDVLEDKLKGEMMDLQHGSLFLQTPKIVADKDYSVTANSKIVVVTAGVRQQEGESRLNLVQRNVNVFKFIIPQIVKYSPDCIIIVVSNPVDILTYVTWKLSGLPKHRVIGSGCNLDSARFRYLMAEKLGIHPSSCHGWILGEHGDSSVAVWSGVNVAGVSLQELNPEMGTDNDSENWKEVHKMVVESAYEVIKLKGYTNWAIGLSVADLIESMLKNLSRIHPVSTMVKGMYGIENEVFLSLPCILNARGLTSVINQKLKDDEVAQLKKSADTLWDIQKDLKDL
Chain of chicken heart LD (P00337 whole entry): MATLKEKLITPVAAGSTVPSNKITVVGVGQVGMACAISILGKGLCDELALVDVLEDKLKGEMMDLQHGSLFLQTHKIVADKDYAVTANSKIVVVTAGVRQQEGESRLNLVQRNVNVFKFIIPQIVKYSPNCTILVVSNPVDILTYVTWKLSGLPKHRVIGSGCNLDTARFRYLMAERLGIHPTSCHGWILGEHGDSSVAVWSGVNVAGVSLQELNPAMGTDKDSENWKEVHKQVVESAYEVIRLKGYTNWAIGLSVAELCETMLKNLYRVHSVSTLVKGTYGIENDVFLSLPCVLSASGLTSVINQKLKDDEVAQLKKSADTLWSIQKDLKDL

CC(=O)C(=O)[O-].[Na+] [pyruvate, Sodium pyruvate]
Percent inhibition, Heart ([1]; 5 mmol/liter pyruvate, pH 6): 90%
Percent inhibition, Heart ([1]; 5 mmol/liter pyruvate, pH 7): 69%
Percent inhibition, Heart ([1]; 5 mmol/liter pyruvate, pH 8): 40%
Percent inhibition, Heart ([1]; 10 mmol/liter pyruvate, pH 6): 91%
Percent inhibition, Heart ([1]; 10 mmol/liter pyruvate, pH 7): 79%
Percent inhibition, Heart ([1]; 10 mmol/liter pyruvate, pH 8): 50%
Percent inhibition, Present method, Heart [1, 17]: 60.8 ± 10.8%
Percent inhibition, Liver ([2]; 5 mmol/liter pyruvate, pH 6): 53%
Percent inhibition, Liver ([2]; 5 mmol/liter pyruvate, pH 7): 20%
Percent inhibition, Liver ([2]; 5 mmol/liter pyruvate, pH 8, negative sign = increased rate): -19%
Percent inhibition, Liver ([2]; 10 mmol/liter pyruvate, pH 6): 65%
Percent inhibition, Liver ([2]; 10 mmol/liter pyruvate, pH 7): 50%
Percent inhibition, Liver ([2]; 10 mmol/liter pyruvate, pH 8, negative sign = increased rate): -14%
Percent inhibition, Present method, Liver [2, 17]: 17.6 ± 11.8%
pH for maximum inhibition of LD activity [3]: 7
inhibition of chicken heart LD ([3]; pH 8 and above): no inhibition was seen
reaction rate, % of the maximum velocity ([4]; 3.4 mmol/liter pyruvate): 114%
inhibition of rabbit muscle LD ([4]; 10 mmol/liter pyruvate): 2%
Percent inhibition, Present method, Kidney [5]: 53.1 ± 5.0%
Percent inhibition, Present method, Brain [6]: 50.6 ± 8.4%
Percent inhibition, Present method, Spleen [7]: 43.5 ± 9.0%
Percent inhibition, Present method, Muscle [8]: 16.1 ± 11.8%
inhibition of the H-type LD [9]: more than 50%
inhibition of the M-type LD [10]: slight inhibition
Percent inhibition, Preincubation method, Heart [11]: 61.1 ± 8.3%
Percent inhibition, Preincubation method, Liver [12]: 18.3 ± 10.0%
Percent inhibition, Preincubation method, Kidney [13]: 53.0 ± 15.1%
Percent inhibition, Preincubation method, Brain [14]: 59.0 ± 6.6%
Percent inhibition, Preincubation method, Spleen [15]: 41.3 ± 8.5%
Percent inhibition, Preincubation method, Muscle [16]: 17.3 ± 12.2%
